According to the NIST ThermoML archive (doi:10.1007/s10765-005-8089-2):

Assay: xn = mol fraction of the nth substance listed
Conditions: Liquid, Falling or rolling sphere viscometry

Cc1ccccc1 [toluene] + CCO
viscosity [mPa·s]
Conditions	x2 = 0.125	x2 = 0.25	x2 = 0.375	x2 = 0.5	x2 = 0.625	x2 = 0.75	x2 = 0.875
293.15 K, 100 kPa	0.588	0.609	0.652	0.71	0.79	0.899	1.023
293.15 K, 20000 kPa	0.68	0.71	0.754	0.815	0.909	1.014	1.157
293.15 K, 40000 kPa	0.781	0.816	0.866	0.931	1.034	1.152	1.306
293.15 K, 60000 kPa	0.893	0.931	0.986	1.055	1.166	1.297	1.457
293.15 K, 80000 kPa	1.016	1.054	1.114	1.187	1.302	1.444	1.604
293.15 K, 100000 kPa	1.153	1.189	1.251	1.331	1.449	1.6	1.757
313.15 K, 100 kPa	0.462	0.471	0.49	0.525	0.574	0.635	0.717
313.15 K, 20000 kPa	0.538	0.549	0.573	0.611	0.662	0.729	0.825
313.15 K, 40000 kPa	0.619	0.632	0.658	0.699	0.757	0.83	0.932
313.15 K, 60000 kPa	0.705	0.718	0.747	0.792	0.854	0.933	1.039
313.15 K, 80000 kPa	0.796	0.81	0.841	0.889	0.955	1.038	1.147
313.15 K, 100000 kPa	0.893	0.907	0.94	0.991	1.058	1.145	1.255
333.15 K, 100 kPa	0.37	0.373	0.385	0.405	0.431	0.468	0.523
333.15 K, 20000 kPa	0.433	0.437	0.45	0.47	0.501	0.544	0.603
333.15 K, 40000 kPa	0.499	0.503	0.518	0.54	0.573	0.621	0.684
333.15 K, 60000 kPa	0.568	0.571	0.588	0.611	0.647	0.697	0.763
333.15 K, 80000 kPa	0.639	0.643	0.662	0.686	0.724	0.776	0.844
333.15 K, 100000 kPa	0.714	0.718	0.739	0.763	0.804	0.856	0.926
353.15 K, 100 kPa	0.306	–	–	–	–	–	–
353.15 K, 20000 kPa	0.358	0.356	0.361	0.372	0.39	0.415	0.453
353.15 K, 40000 kPa	0.412	0.411	0.417	0.427	0.446	0.476	0.516
353.15 K, 60000 kPa	0.468	0.467	0.474	0.484	0.504	0.536	0.577
353.15 K, 80000 kPa	0.526	0.525	0.532	0.541	0.564	0.597	0.64
353.15 K, 100000 kPa	0.588	0.586	0.593	0.601	0.625	0.66	0.703
